Test results published in patent US10285979B2, “Breast cancer therapeutic agent containing 5′-hydroxy-5-nitro-indirubin-3′-oxime as active ingredient” (ANYGEN CO., LTD., priority 2016, dated 2019).
Read-outs that look alike come from different tables or passages of the source.

Legend:
[1] = tested on: TAMR-MCF-7 tamoxifen resistant breast cancer cells; assay: TAMR-MCF-7 tamoxifen resistant breast cancer xenografted model, intraperitoneal
A549 lung cancer cells = tested on: A549 lung cancer cells
Text: The tumor has been grown after injecting A549 lung cancer cells to the nude mouse. […] The tumor growth has been observed for 27 days.
The tumor volume and shape in the nude mouse have been observed for 27 days.

cancer cell = conditions: DAPI staining
Text: Further, we have examined the apoptotic body stained with DAPI using a fluorescence microscope to investigate the induction of apoptosis by AGM-130.

[2] = tested on: MDA-MB-231 triple negative breast cancer cells
Text: After implanting MDA-MB-231 triple negative breast cancer cells to the nude mouse, the tumor has been grown to the 200 mm^3 volume.
(§1) The tumor volume and shape in the nude mouse have been observed for 24 days.

[3] = tested on: MCF-7 ER positive breast cancer cells
Text: as §1

HL-60(TB) = conditions: 10 μM; leukemia cell line HL-60(TB)
[4] = tested on: Imatinib-resistant K562 cells; conditions: in vitro and in vivo systems; cited from earlier work
HCT-15 = conditions: 10 μM; colorectal cancer cell line HCT-15
Text: (§2) If the growth percent is 0%, it means that no further growth of cancer cells occurs, which is an ideal case.

A549/ATCC = conditions: 10 μM; non-small cell lung cancer cell line A549/ATCC
Text: as §2

OVCAR-4 = conditions: 10 μM; ovarian cancer cell line OVCAR-4
Text: as §2

CAKI-1 = conditions: 10 μM; renal cell carcinoma cell line CAKI-1
Text: as §2

UACC-257 = conditions: 10 μM; malignant melanoma cell line UACC-257
Text: as §2

NCI-H460 = conditions: 10 μM; non-small cell lung cancer cell line NCI-H460
Text: as §2

COLO 205 = conditions: 10 μM; colorectal cancer cell line COLO 205
Text: as §2

SK-MEL-28 = conditions: 10 μM; malignant melanoma cell line SK-MEL-28
Text: as §2

MCF-7 = conditions: 10 μM; breast cancer cell line MCF-7
Text: as §2

SNB-19 = conditions: 10 μM; CNS cancer cell line SNB-19
Text: as §2

MDA-MB-231 = conditions: 10 μM; breast cancer cell line MDA-MB-231
Text: as §2

UO-31 = conditions: 10 μM; renal cell carcinoma cell line UO-31
Text: as §2

ACHN = conditions: 10 μM; renal cell carcinoma cell line ACHN
Text: as §2

OVCAR-8 = conditions: 10 μM; ovarian cancer cell line OVCAR-8
Text: as §2

786-0 = conditions: 10 μM; renal cell carcinoma cell line 786-0
Text: as §2

OVCAR-3 = conditions: 10 μM; ovarian cancer cell line OVCAR-3
Text: as §2

[5] = tested on: Her2 positive breast cancer cell lines; conditions: 4 types of Her2 positive breast cancer cell lines
[6] = 3 mg/kg intravenously once a week, day 0
[7] = 3 mg/kg intravenously once a week, day 3
[8] = 3 mg/kg intravenously once a week, day 6
[9] = 3 mg/kg intravenously once a week, day 9
[10] = 3 mg/kg intravenously once a week, day 12
[11] = 3 mg/kg intravenously once a week, day 15
[12] = 3 mg/kg intravenously once a week, day 18
[13] = 3 mg/kg intravenously once a week, day 21
[14] = 3 mg/kg intravenously once a week, day 24
[15] = 7 mg/kg intravenously once a week, day 0
[16] = 7 mg/kg intravenously once a week, day 3
[17] = 7 mg/kg intravenously once a week, day 6
[18] = 7 mg/kg intravenously once a week, day 9
[19] = 7 mg/kg intravenously once a week, day 12
[20] = 7 mg/kg intravenously once a week, day 15
[21] = 7 mg/kg intravenously once a week, day 18
[22] = 7 mg/kg intravenously once a week, day 21
[23] = 7 mg/kg intravenously once a week, day 24
[24] = 14 mg/kg intravenously once a week, day 0
[25] = 14 mg/kg intravenously once a week, day 3
[26] = 14 mg/kg intravenously once a week, day 6
[27] = 14 mg/kg intravenously once a week, day 9
[28] = 14 mg/kg intravenously once a week, day 12
[29] = 14 mg/kg intravenously once a week, day 15
[30] = 14 mg/kg intravenously once a week, day 18
[31] = 14 mg/kg intravenously once a week, day 21
[32] = 14 mg/kg intravenously once a week, day 24

Structure (SMILES): O=C1Nc2ccc([N+](=O)[O-])cc2C1=C1Nc2ccc(O)cc2C1=NO [AGM-130, (2′Z 3′E)-5′-hydroxy-5-nitro indirubin oxime]
- reduction of tumor volume ([1]; 10 mg/kg and 40 mg/kg, FIG. 8): significantly observed
- tumor volume reduction compared to control group ([1]; 10 mg/kg intraperitoneally twice a week): about 54%
- tumor volume reduction compared to control group ([1]; 40 mg/kg intraperitoneally twice a week): about 45%
- weight of mouse compared to control group ([1]; 10/40 mg/kg): changed significantly
- volume of tumor (A549 lung cancer cells; 10/20/40 mg/kg intraperitoneally every other day, FIG. 14): cannot be reduced significantly
- weight of tumor (A549 lung cancer cells; 10/20/40 mg/kg intraperitoneally, FIG. 15a): cannot be reduced significantly
- apoptosis in tumor (TUNEL assay) (A549 lung cancer cells; paraffin embedded tumor region, compared to vehicle, FIG. 15b): induces the apoptosis
- induction of apoptosis (cancer cell): mitochondria-dependent apoptosis
- tumor volume reduction compared to control group ([2]; 3 mg/kg intravenously): about 31%
- volume of tumor [2, 6]: 341.5 ± 14.4
- volume of tumor [2, 7]: 474.6 ± 26.4
- volume of tumor [2, 8]: 602.5 ± 44.1
- volume of tumor [2, 9]: 693.1 ± 61.0
- volume of tumor [2, 10]: 838.0 ± 79.9
- volume of tumor [2, 11]: 996.9 ± 79.9
- volume of tumor [2, 12]: 1217.5 ± 81.8
- volume of tumor [2, 13]: 1398.0 ± 78.1
- volume of tumor [2, 14]: 1871.4 ± 175.5
- tumor volume reduction compared to control group ([2]; 7 mg/kg intravenously): about 47%
- volume of tumor [2, 15]: 355.4 ± 10.7
- volume of tumor [2, 16]: 451.9 ± 10.2
- volume of tumor [2, 17]: 543.4 ± 10.9
- volume of tumor [2, 18]: 615.5 ± 19.0
- volume of tumor [2, 19]: 651.0 ± 47.1
- volume of tumor [2, 20]: 677.9 ± 46.7
- volume of tumor [2, 21]: 899.6 ± 59.6
- volume of tumor [2, 22]: 1108.9 ± 88.1
- volume of tumor [2, 23]: 1436.1 ± 84.8
- tumor volume reduction compared to control group ([2]; 14 mg/kg intravenously): about 61%
- volume of tumor [2, 24]: 342.1 ± 20.7
- volume of tumor [2, 25]: 408.5 ± 10.3
- volume of tumor [2, 26]: 470.8 ± 20.4
- volume of tumor [2, 27]: 525.4 ± 35.6
- volume of tumor [2, 28]: 535.3 ± 39.0
- volume of tumor [2, 29]: 581.5 ± 44.8
- volume of tumor [2, 30]: 696.1 ± 54.6
- volume of tumor [2, 31]: 831.0 ± 75.1
- volume of tumor [2, 32]: 1064.3 ± 39.8
- weight of tumor ([2]; intravenously, FIG. 6): dose-dependently reduced
- tumor volume reduction compared to control group ([3]; 3 mg/kg intravenously): about 49%
- volume of tumor [3, 6]: 131.9 ± 8.6
- volume of tumor [3, 7]: 167.5 ± 7.1
- volume of tumor [3, 8]: 182.3 ± 4.2
- volume of tumor [3, 9]: 253.3 ± 7.9
- volume of tumor [3, 10]: 311.9 ± 2.3
- volume of tumor [3, 11]: 337.5 ± 11.0
- volume of tumor [3, 12]: 359.8 ± 15.6
- volume of tumor [3, 13]: 408.2 ± 19.0
- volume of tumor [3, 14]: 434.5 ± 18.3
- tumor volume reduction compared to control group ([3]; 7 mg/kg intravenously): about 64%
- volume of tumor [3, 15]: 129.1 ± 3.8
- volume of tumor [3, 16]: 166.9 ± 7.4
- volume of tumor [3, 17]: 190.0 ± 6.3
- volume of tumor [3, 18]: 205.6 ± 11.4
- volume of tumor [3, 19]: 235.6 ± 7.1
- volume of tumor [3, 20]: 267.3 ± 9.4
- volume of tumor [3, 21]: 288.1 ± 6.2
- volume of tumor [3, 22]: 300.2 ± 15.4
- volume of tumor [3, 23]: 310.1 ± 18.2
- tumor volume reduction compared to control group ([3]; 14 mg/kg intravenously): about 69%
- volume of tumor [3, 24]: 127.8 ± 2.4
- volume of tumor [3, 25]: 156.8 ± 4.7
- volume of tumor [3, 26]: 180.6 ± 5.0
- volume of tumor [3, 27]: 202.9 ± 3.8
- volume of tumor [3, 28]: 210.6 ± 5.1
- volume of tumor [3, 29]: 234.7 ± 17.8
- volume of tumor [3, 30]: 249.4 ± 15.3
- volume of tumor [3, 31]: 264.8 ± 12.9
- volume of tumor [3, 32]: 268.7 ± 8.7
- Growth percent (HL-60(TB)): 3.67%
- viability of cells [4]: efficiently decreases the viability
- Growth percent (HCT-15): 10.28%
- Growth percent (A549/ATCC): 10.64%
- Growth percent (OVCAR-4): 19.65%
- Growth percent (CAKI-1): −14.28%
- Growth percent (UACC-257): 9.29%
- Growth percent (NCI-H460): −28.47%
- Growth percent (COLO 205): 65.80%
- Growth percent (SK-MEL-28): −11.04%
- Growth percent (MCF-7): 2.75%
- Growth percent (SNB-19): 17.47%
- Growth percent (MDA-MB-231): 25.45%
- Growth percent (UO-31): −1.14%
- Growth percent (ACHN): −25.79%
- Growth percent (OVCAR-8): 7.71%
- Growth percent (786-0): 4.21%
- Growth percent (OVCAR-3): 4.31%
- IC50 [5]: > 3000 nM
